Values quoted from earlier work, collected in patent US20250000096A1, “ANTIMICROBIAL COMPOSITION WITH A LOW ODOR” (EVONIK CORPORATION, priority 2021, published 2025).

Conditions: background statement

limit for olfactory detection: 0.15 ppm
SMILES: CC(=O)O [acetic acid]
